Source: US9738684B2, “N-terminally modified linear and branched polyamine conjugated peptidomimetics as antimicrobials agents” (COUNCIL OF SCIENTIFIC & INDUSTRIAL RESEARCH, priority 2015, dated 2017)
≈ marks a conversion by molar mass, not a printed value. Where “and” joins values, the source holds several entries; their conditions need not be identical. Equal entries are not always repeated.

Assays:
[1] = tested on: MRSA (ATCC 33591) biofilm; assay: Inhibition of biofilm formation (alamar blue, crystal violet); type: cell-based, Staphylococcus aureus; details: sub-MICb; for reduction in metabolic activity (alamar blue), biofilm formation: printed as 'reduction up to'
Experimental: (§1) To evaluate potential of designed active peptidomimetics against MRSA biofilms a methodology as used previously was employed with minor modifications [Antimicrob. Agents Chemother., 57:2726-2737, 2013]. Briefly, freshly inoculated MRSA (ATCC 33591) was grown in biofilm growth media (TSB supplemented with 0.5% w/v NaCl and 0.25% w/v glucose) overnight. Next day, the culture was diluted in fresh biofilm growth media to 10^5 CFU/mL. 200 μl of diluted culture was dispensed in wells of a 96-well polystyrene plate for biofilm formation. […] Biofilm cultures were re-incubated at 37° C. for 24 h. After removal of medium, the biofilms were further washed twice with sterile NaCl/Pi buffer and assessed for metabolic activity (alamar blue assay) and biomass quantification (Crystal violet assay).

[2] = tested on: Escherichia coli (ATCC 11775); assay: MIC, serial broth dilution; type: cell-based; parameters: MIC E. coli. (ATCC 11775): unit not given here; details: MHB, 18 h, 37° C.
Experimental: (§2) The peptidomimetics designed in present invention were evaluated as antibacterial therapeutics against a broad range of bacterial strains by broth microdilution method. The antibacterial activity of the peptidomimetics was reported in terms of the minimum inhibitory concentrations (MIC).
(§3) Following bacterial strains were used in this study: S. aureus (ATCC 29213), methicillin resistant S. aureus (ATCC 33591), Staphylococcus epidermidis (ATCC 12228), methicillin resistant Staphylococcus epidermidis(ATCC 51625), Enterococcus faecalis (ATCC 7080), Escherichia coli (ATCC 11775), and Acinetobacter baumannii (ATCC 19606). Antibacterial activity was evaluated using a modified serial broth dilution method in accordance with Clinical Laboratory Standard Institute guidelines [Methods for dilution antimicrobial susceptibility tests for bacteria that grow aerobically-7th ed. Approved standard M7-A7. Clinical and Laboratory Standards Institute, Wayne, Pa., Biochim. Biophys. Acta 1798:1864-1875, 2010.]. Briefly, the inoculums were prepared from mid-log phase bacterial cultures. Peptidomimetics were incubated with bacterial suspension in Muller Hinton broth media (10^5 CFU/mL) in 96 well microtitre plate. The plates were incubated overnight with agitation (200 rpm) at 37° C. After 18 h, absorbance was measured at 630 nm. Cultures without test peptidomimetics were used as positive control. Un-inoculated Mueller Hinton Broth (MHB) was used as negative control. Tests were carried out in duplicate on at least three different days. […] For comparison standard peptide antibiotics vancomycin (VAN) and polymyxin B (PMB) were also assayed under identical conditions (Table 2). […] Further, antibacterial activity of active peptidomimetics 1c and 1d were also evaluated against MRSA in presence of 25% v/v human serum as well as bovine serum.

[3] = tested on: peripheral blood mononuclear cells (PBMCs); assay: LDH release cytotoxicity assay; type: cell-based, human; details: 20 μg/mL, 24 h
Experimental: For the experiment a protocol as used previously was employed with minor modifications [J. Immunol. Methods, 115:61-69, 1988; Chem. Biol. 20:1286-1295, 2013.]. Briefly, blood was collected from healthy human donors in sodium heparin anticoagulant tubes in accordance with institutional guidelines. The blood was diluted 1:1 with NaCl/Pi (35 mM phosphate buffer, 150 mM NaCl, pH 7.2). Blood cells were separated over histopaque (Sigma-aldrich) by centrifugation for 30 min at 1200 rpm. The PBMCs were collected and washed twice with NaCl/Pi (35 mM phosphate buffer, 150 mM NaCl, pH 7.2). The cells were then re-suspended in complete RPMI 1640 medium (Himedia) supplemented with 10% FBS (Sigma) and quantified by trypan blue exclusion on microscope. PBMCs (1×10^6 cells/mL) in complete media were seeded into a 24-well plate and left in the incubator for 2 h at 37° C. in 5% CO2. The cells were then treated with 1c, 1d and VAN at desired concentrations (20 μg/mL). 2% Triton X-100 was used as a […] control. After 24 h of incubation, the content of each well was transferred to sterile 1.5 mL eppendorf tube and cells were pelleted at 2000 rpm for 10 min. The supernatant was assessed for the release of LDH by using the TOX7 kit (Sigma). […]

[4] = tested on: MRSA (ATCC 33591) biofilm; assay: 24 h preformed mature biofilm (alamar blue, crystal violet); type: cell-based, Staphylococcus aureus; details: 20×MICb: 1c 140 μg/mL, 1d 70 μg/mL, VAN 20 μg/mL
Experimental: as §1

S. aureus (ATCC 29213) = assay: MIC, serial broth dilution; type: cell-based, Staphylococcus aureus; details: MHB, 18 h, 37° C.
Experimental: as §2, §3

[5] = tested on: methicillin resistant S. aureus (ATCC 33591); assay: MIC, serial broth dilution; type: cell-based, Staphylococcus aureus; details: MHB, 18 h, 37° C.
Experimental: as §2, §3

S. aureus (ATCC 33591) = assay: Resistance development study, serial passage at sub MIC; type: cell-based, Staphylococcus aureus; details: 17 serial passages at sub MIC
Experimental: FIG. 5: Illustration of resistance development study in S. aureus (ATCC 33591) after 17 serial passages with sub MIC of 1c/1d or antibiotic treatment. The fold change in MIC is the ratio of the MIC after 17 passages relative to that MIC observed before first passage.
To determine potential of active peptidomimetics against resistance development, in vitro serial passage method at sub inhibitory concentration was done. Briefly, bacterial suspension (100 μL) from duplicate wells at the concentration of sub-MIC was used to inoculate fresh culture. The culture was grown to obtain approximately 10^5 CFU/mL for the next experiment. These bacterial suspensions were then incubated with desired concentration of antibacterial agents for 18 h to determine new MIC. The same sub culturing protocol was used for next 16 passages and MIC was determined using OD630 nm as described previously in the text [Chem. Biol., 20:1286-1295, 2013.]

| SMILES | % biomass reduction (crystal violet), biofilm formation [1] [%] | reduction in metabolic activity (alamar blue), biofilm formation [1] [%] | MIC E. coli. (ATCC 11775) [2] | % LDH release against peripheral blood mononuclear cells [3] | biomass remaining compared to control, 24 h pre-formed biofilm (crystal violet) [4] [%] | MIC S. aureus (ATCC 29213) (S. aureus (ATCC 29213)) [µg/mL] | MIC MRSA (ATCC 33591) [5] [µg/mL] | increase in MIC after 17 passages (S. aureus (ATCC 33591)) [fold] |
| --- | --- | --- | --- | --- | --- | --- | --- | --- |
| NCCCNCCCCNCCCNC(=O)C(Cc1c[nH]c2ccccc12)NC(=O)C(Cc1c[nH]c2ccccc12)NC(=O)Cc1ccc(C(F)(F)F)cc1 (stereo not shown) [1c] | 19.8±5.6 | 33.1±5.7 | 56.8 | 5.78±6.58% and 5.78% | 24.0±13.4 | 0.0017 (≈ 0.00223 µM) | 3.5 (≈ 4.6 µM) | 4 |
| CCCCCCCCCC(=O)NC(Cc1c[nH]c2ccccc12)C(=O)NC(Cc1c[nH]c2ccccc12)C(=O)NCCCNCCCCNCCCN (stereo not shown) [1d] | 28.2±11.1 | 26.4±3.3 | 14.2 | 17.56±10.15% and 17.5% | 21.4±9.2 | 0.0017 (≈ 0.00233 µM) | 1.7 (≈ 2.33 µM) | 2 |
